{"source": "patent US20210123868A1", "about": "“REAGENT COMPOSITION FOR PH MEASUREMENT” (MIURA CO., LTD., priority 2018, published 2021)", "origin": "cited, not measured here"}
{"settings": "value at 25° C."}
{"molecule": "Cc1c(C2(c3cc(Br)c(O)c(Br)c3C)OS(=O)(=O)c3ccccc32)cc(Br)c(O)c1Br", "note": "[bromocresol green]", "acid dissociation constant (pKa)": 4.7}
{"molecule": "Cc1cc(C2(c3cc(C)c(O)c(Br)c3)OS(=O)(=O)c3ccccc32)cc(Br)c1O", "note": "[bromocresol purple]", "acid dissociation constant (pKa)": 6.3}
{"molecule": "alizarin yellow", "acid dissociation constant (pKa)": 11.06}
